# Source: patent US20250368647A1, “NITROGEN CONTAINING CONDENSED 2,3-DIHYDROQUINAZOLINONE COMPOUNDS AS NAV1.8 INHIBITORS” (GLAXOSMITHKLINE INTELLECTUAL PROPERTY DEVELOPMENT LIMITED, priority 2022, published 2025)
# Structures can show the parent of a compound that is named as a salt.
# Target: human Nav1.8 (Homo sapiens (Human), UniProt Q9Y5Y9)
# Assay: QPatch 48 HTX voltage-clamp electrophysiology, half inactivation state (V1/2) protocol, HEK293-Nav1.8 cells
# Format: cell-based
# Settings: HEK293 cells expressing human Nav1.8, human Navβ1 and human TREK1, P2 current
# Procedure, shortened: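 HEK293 cells co-expressing Navβ1 and TREK1 were voltage-clamped from −100 mV: a 20 ms step to 0 mV, 8 s inactivation at −46 mV, 20 ms at −100 mV, then a 20 ms P2 test step to 0 mV, repeated every 15 s. P2 current was normalized to vehicle and full block, corrected for run-down, and Hill-fitted (4–6 concentrations) for IC50.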
# Sequence of human Nav1.8 (Q9Y5Y9 whole entry): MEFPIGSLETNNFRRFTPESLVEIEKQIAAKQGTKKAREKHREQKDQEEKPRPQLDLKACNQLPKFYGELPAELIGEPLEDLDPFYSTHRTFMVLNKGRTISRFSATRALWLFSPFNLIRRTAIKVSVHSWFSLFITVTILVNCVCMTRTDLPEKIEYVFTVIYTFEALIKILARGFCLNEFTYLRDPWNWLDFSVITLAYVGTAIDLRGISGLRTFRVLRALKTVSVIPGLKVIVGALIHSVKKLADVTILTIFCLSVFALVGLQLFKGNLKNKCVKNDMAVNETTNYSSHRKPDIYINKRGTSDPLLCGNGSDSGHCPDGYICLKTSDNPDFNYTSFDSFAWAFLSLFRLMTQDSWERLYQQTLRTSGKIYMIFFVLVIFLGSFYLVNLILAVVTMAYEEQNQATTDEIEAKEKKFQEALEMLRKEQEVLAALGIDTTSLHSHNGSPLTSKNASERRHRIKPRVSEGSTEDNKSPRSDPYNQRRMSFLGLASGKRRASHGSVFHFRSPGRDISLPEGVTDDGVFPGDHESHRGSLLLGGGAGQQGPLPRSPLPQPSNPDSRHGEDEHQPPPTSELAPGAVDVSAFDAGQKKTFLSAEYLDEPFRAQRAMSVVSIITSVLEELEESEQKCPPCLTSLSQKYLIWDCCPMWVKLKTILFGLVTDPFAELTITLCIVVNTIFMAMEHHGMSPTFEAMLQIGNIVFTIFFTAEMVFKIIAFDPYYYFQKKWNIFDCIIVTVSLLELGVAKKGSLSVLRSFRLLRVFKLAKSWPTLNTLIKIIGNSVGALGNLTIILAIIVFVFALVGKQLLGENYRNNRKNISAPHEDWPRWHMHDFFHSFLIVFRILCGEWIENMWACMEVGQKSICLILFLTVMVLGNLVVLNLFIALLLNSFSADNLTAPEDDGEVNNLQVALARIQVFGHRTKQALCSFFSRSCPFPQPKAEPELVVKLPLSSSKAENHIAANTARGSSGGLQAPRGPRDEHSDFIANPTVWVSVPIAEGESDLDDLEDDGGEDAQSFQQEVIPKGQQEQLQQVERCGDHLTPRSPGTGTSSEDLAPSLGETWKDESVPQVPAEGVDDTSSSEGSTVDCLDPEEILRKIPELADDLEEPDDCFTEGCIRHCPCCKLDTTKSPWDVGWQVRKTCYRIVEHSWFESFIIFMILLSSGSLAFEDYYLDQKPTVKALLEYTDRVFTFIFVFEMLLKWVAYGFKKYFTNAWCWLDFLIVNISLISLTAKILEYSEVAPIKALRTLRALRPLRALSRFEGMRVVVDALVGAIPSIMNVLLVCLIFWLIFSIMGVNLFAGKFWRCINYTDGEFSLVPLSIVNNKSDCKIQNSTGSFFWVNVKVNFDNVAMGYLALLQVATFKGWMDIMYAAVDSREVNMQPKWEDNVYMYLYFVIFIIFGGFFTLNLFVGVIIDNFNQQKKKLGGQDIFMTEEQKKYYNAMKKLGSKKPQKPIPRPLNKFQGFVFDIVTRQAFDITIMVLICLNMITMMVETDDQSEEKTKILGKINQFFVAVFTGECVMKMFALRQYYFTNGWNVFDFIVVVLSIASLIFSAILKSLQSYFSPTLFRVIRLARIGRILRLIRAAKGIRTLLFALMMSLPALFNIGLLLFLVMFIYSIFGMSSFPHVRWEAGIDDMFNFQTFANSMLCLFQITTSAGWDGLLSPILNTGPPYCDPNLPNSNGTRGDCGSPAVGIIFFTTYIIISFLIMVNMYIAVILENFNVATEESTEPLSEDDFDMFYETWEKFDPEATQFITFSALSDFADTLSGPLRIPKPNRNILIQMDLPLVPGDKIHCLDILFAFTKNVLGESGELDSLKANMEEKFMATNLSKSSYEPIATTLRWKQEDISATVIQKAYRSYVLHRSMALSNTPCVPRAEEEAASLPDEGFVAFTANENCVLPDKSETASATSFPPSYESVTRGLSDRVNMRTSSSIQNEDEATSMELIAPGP
# Sequence of human Nav1.8 (Q07699 19-218 partner): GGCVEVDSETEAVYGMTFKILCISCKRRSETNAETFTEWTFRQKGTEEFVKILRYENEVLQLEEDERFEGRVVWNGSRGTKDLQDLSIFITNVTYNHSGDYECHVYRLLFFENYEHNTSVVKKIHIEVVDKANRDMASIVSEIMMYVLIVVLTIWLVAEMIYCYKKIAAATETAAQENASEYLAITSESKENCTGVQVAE
row,SMILES,"Nav1.8, pIC50"
1,"Cl.O=C1c2cc(F)c(C(F)(F)F)cc2N2CN1c1ccc(=O)[nH]c1CCCNCc1c2ccc(F)c1F [Example 108, 2^6,3^3,3^4-trifluoro-2^7-(trifluoromethyl)-1^1,1^2,2^1,2^2,2^3,2^4-hexahydro-5-aza-2(3,1)-quinazolina-1(5,6)-pyridina-3(1,2)-benzenacyclooctaphane-1^2,2^4-dione hydrochloride]",7.6
2,"Cl.N#Cc1cc2c(cc1F)C(=O)N1CN2c2ccc(OC(F)(F)F)c(F)c2CNCCc2[nH]c(=O)ccc21 [Example 89, 2,9-Difluoro-15,19-dioxo-8-(trifluoromethoxy)-10,11,12,13,14,15-hexahydro-19H-5,18-methanodibenzo[c,f]pyrido[3,2-j][1,5,9]triazacyclotridecine-3-carbonitrile hydrochloride]",8.1
3,"Cl.O=C1c2cc(F)c(Br)cc2N2CN1c1ccc(=O)[nH]c1CCNCc1cc(F)ccc12 [Example 63, 3-Bromo-2,8-difluoro-10,11,12,13-tetrahydro-19H-5,18-methanodibenzo[c,f]pyrido[3,2-j][1,5,9]triazacyclotridecine-15,19(14H)-dione hydrochloride]",8
4,"O=C1c2cc(C(F)(F)F)ccc2N2CN1c1ccc(=O)[nH]c1CCNCc1cc(F)ccc12 [Example 41, 8-Fluoro-2-(trifluoromethyl)-10,11,12,13-tetrahydro-19H-5,18-methanodibenzo[c,f]pyrido[3,2-f][1,5,9]triazacyclotridecine-15,19(14H)-dione]",7.3
5,"CN1CCCc2cc(F)ccc2N2CN(C(=O)c3cc(C(F)(F)F)ccc32)c2ccc(=O)[nH]c21 [Example 30, 8-Fluoro-13-methyl-2-(trifluoromethyl)-10,11,12,13-tetrahydro-19H-5,18-methanodibenzo[f,i]pyrido[2,3,-b][1,4,8]triazacyclotridecine-15,19(14H)-dione]",6.9
6,"O=C1c2cc(F)c(C(F)(F)F)cc2N2CN1c1ccc(=O)[nH]c1NCCCc1c2ccc(F)c1F [Example 92, 2,8,9-Trifluoro-3-(trifluoromethyl)-10,11,12,13-tetrahydro-19H-5,18-methano-dibenzo[f,i]pyrido[2,3-b][1,4,8]triazacyclotridecine-15,19(14H)-dione, methanesulfonic acid salt]",8.4
7,"O=C1c2cc(F)c(Cl)cc2N2CN1c1ccc(=O)[nH]c1NCCCc1cc(F)ccc12 [Example 93, 3-Chloro-2,8-difluoro-10,11,12,13-tetrahydro-19H-5,18-methanodibenzo[f,i]pyrido[2,3-b]-[1,4,8]triazacyclotridecine-15,19(14H)-dione]",8.1
8,"CN1CCCCc2cc(F)ccc2N2CN(C(=O)c3ccc(C(F)(F)F)cc32)c2cc(I)c(=O)[nH]c21 [Example 14, 3^4-Fluoro-1^3-iodo-8-methyl-2^7-(trifluoromethyl)-1^1, 1^2,2^1,2^2,2^3,2^4-hexahydro-8-aza-2(3,1)-quinazolina-1(5,6)-pyridina-3(1,2)-benzenacyclooctaphan-1^2,2^4-dione]",6.9
9,"O=C1c2cnc(C(F)(F)F)cc2N2CN1c1ccc(=O)[nH]c1NCCCc1cc(F)ccc12 [Example 36, 8-Fluoro-3-(trifluoromethyl)-10,11,12,13-tetrahydro-19H-5,18-methanodibenzo[i]dipyrido[2,3,-b:3′,4′-f][1,4,8]triazacyclotridecine-15,19(14H)-dione]",6.6

# Same assay, conditions: HEK293 cells expressing human Nav1.8, human Navβ1 and human TREK1, P2 current, read-out: Nav1.8, pIC50 (converted)
row,SMILES,IC50
1,"CC1Cc2[nH]c(=O)ccc2N2CN(c3ccc(F)cc3CN1)c1cc(C(F)(F)F)c(F)cc1C2=O (single isomer, unassigned; isomer 2) [Example 125, 2,8-difluoro-12-methyl-3-(trifluoromethyl)-10,11,12,13-tetrahydro-19H-5,18-methanodibenzo[c,f]pyrido[3,2-j][1,5,9]triazacyclotridecine-15,19(14H)-dione, Isomer 2]",631 nM
